Experimental data reported in ChEMBL document CHEMBL5576067, “Synthesis and biological evaluation of novel 1,2,3,4-tetrahydro-β-carboline derivatives as potential antibacterial agents” (Bioorg Med Chem Lett, 2024).
In brackets after ≈: the same amount, converted by molar mass. Activity calls are given as the source filed them. The rule behind the calls is not given here.

Legend:
Staphylococcus aureus [1] = experiment: Antibacterial activity against methicillin resistant Staphylococcus aureus ATCC33591 assessed as inhibition of bacterial growth incubated for 24 hrs by broth microdilution method; type: functional
Enterococcus faecium = experiment: Antibacterial activity against vancomycin-resistant Enterococcus faecium ATCC 700221 assessed as inhibition of bacterial growth incubated for 24 hrs by broth microdilution method; type: functional
Staphylococcus aureus [2] = experiment: Antibacterial activity against Staphylococcus aureus ATCC25923 assessed as inhibition of bacterial growth incubated for 24 hrs by broth microdilution method; type: functional
Ralstonia solanacearum = experiment: Antibacterial activity against Ralstonia solanacearum assessed as inhibition of bacterial growth incubated for 24 hrs by broth microdilution method; type: functional
[3] = Antibacterial activity against Pseudomonas syringae pv. actinidiae assessed as inhibition of bacterial growth incubated for 24 hrs by broth microdilution method; type: functional
Escherichia coli = experiment: Antibacterial activity against Escherichia coli ATCC25922 assessed as inhibition of bacterial growth incubated for 24 hrs by broth microdilution method; type: functional
Staphylococcus aureus [4] = experiment: Antibacterial activity against methicillin resistant Staphylococcus aureus ATCC33591 assessed as post antibiotic effect at 1 ug/ml measured after 2 hrs; type: functional; conditions: dose 1 µg/ml
Staphylococcus aureus [5] = experiment: Bactericidal activity against methicillin resistant Staphylococcus aureus ATCC33591 assessed as inhibition of bacterial growth incubated for 24 hrs by resazurin dye based analysis; type: functional
Staphylococcus aureus [6] = experiment: Antibacterial activity against methicillin resistant Staphylococcus aureus ATCC33591 infected in mouse model of abdominal infection assessed as reduction in mean bacterial load in blood at 2 mg/kg, ip treated for 24 hrs starting from 2 hrs post infection; type: functional, organism-based
Staphylococcus aureus [7] = experiment: Antibacterial activity against methicillin resistant Staphylococcus aureus ATCC33591 assessed as post antibiotic effect at 2 ug/ml measured after 2 hrs; type: functional; conditions: dose 2 µg/ml
Staphylococcus aureus [8] = experiment: Antibacterial activity against methicillin resistant Staphylococcus aureus ATCC33591 assessed as eradication of viable bacteria at >8 times MIC measured after 24 hrs by time kill assay; type: functional, organism-based
Staphylococcus aureus [9] = experiment: Antibacterial activity against methicillin resistant Staphylococcus aureus ATCC33591 assessed as inhibition of bacterial growth at 1 times MIC incubated for 24 hrs by time kill assay; type: functional, organism-based
Staphylococcus aureus [10] = experiment: Ratio of MBC to MIC for Staphylococcus aureus ATCC25923; type: functional
Staphylococcus aureus [11] = experiment: Drug resistance, ratio of MIC for methicillin-resistant Staphylococcus aureus ATCC33591 after 18 passages to MIC for methicillin-resistant Staphylococcus aureus ATCC33591 after initial exposure; type: functional
Staphylococcus aureus [12] = experiment: Antibacterial activity against methicillin resistant Staphylococcus aureus ATCC33591 assessed as post antibiotic effect at 8 ug/ml measured after 2 hrs; type: functional; conditions: dose 8 µg/ml
[13] = Cytotoxicity against human HepG2 cells assessed as cell viability at 32 to 64 ug/ml measured after 24 hrs by MTT assay; type: toxicity, cell-based; conditions: at 32 to 64 µg/mL, dose 32-64 µg/ml, read-out: Activity
Staphylococcus aureus [14] = experiment: Bactericidal activity against Staphylococcus aureus ATCC25923 assessed as inhibition of bacterial growth incubated for 24 hrs by resazurin dye based analysis; type: functional
Staphylococcus aureus [15] = experiment: Antibacterial activity against methicillin resistant Staphylococcus aureus ATCC33591 assessed as post antibiotic effect at 16 ug/ml measured after 2 hrs; type: functional; conditions: dose 16 µg/ml
[16] = Cytotoxicity against human L02 cells assessed as cell viability at 32 to 64 ug/ml measured after 24 hrs by MTT assay; type: toxicity, cell-based; conditions: at 32 to 64 µg/mL, dose 32-64 µg/ml, read-out: Activity

SMILES	MIC (Staphylococcus aureus [1])	MIC (Enterococcus faecium)	MIC (Staphylococcus aureus [2])	MIC (Ralstonia solanacearum)	MIC [3]	MIC (Escherichia coli)	PAE (Staphylococcus aureus [4])	MBC (Staphylococcus aureus [5])	Activity (Staphylococcus aureus [6])	PAE (Staphylococcus aureus [7])	Activity (Staphylococcus aureus [8])	Activity (Staphylococcus aureus [9])	Ratio (Staphylococcus aureus [10])	Ratio (Staphylococcus aureus [11])	PAE (Staphylococcus aureus [12])	viability at 24 h [13]	MBC (Staphylococcus aureus [14])	PAE (Staphylococcus aureus [15])	viability at 24 h [16]
CN1CCc2c([nH]c3ccccc23)C1c1ccc(NC(=O)c2ccc(F)c(C(F)(F)F)c2)cc1 (centres undefined)	8 µg/mL (≈ 17.1 µM)	> 128 µg/mL	16 µg/mL (≈ 34.2 µM)	16 µg/mL (≈ 34.2 µM)	64 µg/mL (≈ 137 µM)	16 µg/mL (≈ 34.2 µM)													
O=C(O)c1cn(C2CC2)c2cc(N3CCNCC3)c(F)cc2c1=O [CIPROFLOXACIN]	0.5 µg/mL (≈ 1.51 µM)	> 128 µg/mL	0.5 µg/mL (≈ 1.51 µM)	0.25 µg/mL (≈ 0.754 µM)	0.5 µg/mL (≈ 1.51 µM)		1.18 h	2 µg/mL (≈ 6.04 µM)	Active	1.79 h									
O=C(Nc1ccc(C2NCCc3c2[nH]c2ccccc32)cc1)c1ccccc1 (centres undefined)	128 µg/mL (≈ 348 µM)	> 128 µg/mL	128 µg/mL (≈ 348 µM)	32 µg/mL (≈ 87.1 µM)	32 µg/mL (≈ 87.1 µM)	64 µg/mL (≈ 174 µM)													
O=C(Nc1ccc(C2NCCc3c2[nH]c2ccccc32)cc1)c1ccc(Br)cc1 (centres undefined)	32 µg/mL (≈ 71.7 µM)	> 128 µg/mL	32 µg/mL (≈ 71.7 µM)	32 µg/mL (≈ 71.7 µM)	16 µg/mL (≈ 35.8 µM)	8 µg/mL (≈ 17.9 µM)													
O=C(Nc1ccc(C2NCCc3c2[nH]c2ccccc32)cc1)c1cccc([N+](=O)[O-])c1 (centres undefined)	16 µg/mL (≈ 38.8 µM)	> 128 µg/mL	8 µg/mL (≈ 19.4 µM)	16 µg/mL (≈ 38.8 µM)	32 µg/mL (≈ 77.6 µM)	16 µg/mL (≈ 38.8 µM)													
CN1CCc2c([nH]c3ccccc23)C1c1ccc(NC(=O)c2cc(C(F)(F)F)cc(C(F)(F)F)c2)cc1 (centres undefined)	32 µg/mL (≈ 61.8 µM)	> 128 µg/mL	16 µg/mL (≈ 30.9 µM)	128 µg/mL (≈ 247 µM)	> 128 µg/mL	128 µg/mL (≈ 247 µM)													
O=C(Nc1ccc(C2NCCc3c2[nH]c2ccccc32)cc1)c1cccc(C(F)(F)F)c1 (centres undefined)	4 µg/mL (≈ 9.19 µM)	128 µg/mL (≈ 294 µM)	8 µg/mL (≈ 18.4 µM)	16 µg/mL (≈ 36.7 µM)	32 µg/mL (≈ 73.5 µM)	8 µg/mL (≈ 18.4 µM)													
COC(=O)c1ccc(C(=O)Nc2ccc(C3NCCc4c3[nH]c3ccccc43)cc2)cc1 (centres undefined)	32 µg/mL (≈ 75.2 µM)	> 128 µg/mL	16 µg/mL (≈ 37.6 µM)	16 µg/mL (≈ 37.6 µM)	16 µg/mL (≈ 37.6 µM)	16 µg/mL (≈ 37.6 µM)													
CN1CCc2c([nH]c3ccccc23)C1c1ccc(NC(=O)c2ccccc2F)cc1 (centres undefined)	32 µg/mL (≈ 80.1 µM)	> 128 µg/mL	64 µg/mL (≈ 160 µM)	128 µg/mL (≈ 320 µM)	32 µg/mL (≈ 80.1 µM)	64 µg/mL (≈ 160 µM)													
O=C(Nc1ccc(C2NCCc3c2[nH]c2ccccc32)cc1)c1ccc(F)cc1 (centres undefined)	4 µg/mL (≈ 10.4 µM)	> 128 µg/mL	4 µg/mL (≈ 10.4 µM)	4 µg/mL (≈ 10.4 µM)	64 µg/mL (≈ 166 µM)	16 µg/mL (≈ 41.5 µM)		8 µg/mL (≈ 20.8 µM)			Active	Active	1	<4	0.95 h	> 95%	8 µg/mL (≈ 20.8 µM)	1.28 h	> 95%
O=C(Nc1ccc(C2NCCc3c2[nH]c2ccccc32)cc1)c1cccc(F)c1 (centres undefined)	4 µg/mL (≈ 10.4 µM)	> 128 µg/mL	16 µg/mL (≈ 41.5 µM)	8 µg/mL (≈ 20.8 µM)	32 µg/mL (≈ 83 µM)	16 µg/mL (≈ 41.5 µM)													
CN1CCc2c([nH]c3ccccc23)C1c1ccc(NC(=O)c2ccc(C(F)(F)F)cc2)cc1 (centres undefined)	8 µg/mL (≈ 17.8 µM)	128 µg/mL (≈ 285 µM)	8 µg/mL (≈ 17.8 µM)	16 µg/mL (≈ 35.6 µM)	32 µg/mL (≈ 71.2 µM)	16 µg/mL (≈ 35.6 µM)													
Cc1cccc(C(=O)Nc2ccc(C3c4[nH]c5ccccc5c4CCN3C)cc2)c1 (centres undefined)	64 µg/mL (≈ 162 µM)	> 128 µg/mL	32 µg/mL (≈ 80.9 µM)	32 µg/mL (≈ 80.9 µM)	32 µg/mL (≈ 80.9 µM)	64 µg/mL (≈ 162 µM)													
CN1CCc2c([nH]c3ccccc23)C1c1ccc(NC(=O)c2ccc(Cl)cc2)cc1 (centres undefined)	16 µg/mL (≈ 38.5 µM)	> 128 µg/mL	8 µg/mL (≈ 19.2 µM)	32 µg/mL (≈ 76.9 µM)	64 µg/mL (≈ 154 µM)	32 µg/mL (≈ 76.9 µM)													
CN1CCc2c([nH]c3ccccc23)C1c1ccc(NC(=O)c2cccc(C(F)(F)F)c2)cc1 (centres undefined)	32 µg/mL (≈ 71.2 µM)	> 128 µg/mL	32 µg/mL (≈ 71.2 µM)	16 µg/mL (≈ 35.6 µM)	32 µg/mL (≈ 71.2 µM)	32 µg/mL (≈ 71.2 µM)													
O=C(Nc1ccc(C2NCCc3c2[nH]c2ccccc32)cc1)c1ccc(F)c(C(F)(F)F)c1 (centres undefined)	8 µg/mL (≈ 17.6 µM)	> 128 µg/mL	4 µg/mL (≈ 8.82 µM)	16 µg/mL (≈ 35.3 µM)	32 µg/mL (≈ 70.6 µM)	8 µg/mL (≈ 17.6 µM)													
